Laboratory results reported in patent publication US20260085077A1, “HETEROCYCLIC DERIVATIVES AS JANUS KINASE INHIBITORS” (CHIESI FARMACEUTICI S.P.A., priority 2022, published 2026).

Tested on: IL-13 induced pSTAT6 in BEAS-2B human cell line
Experiment: Inhibition of IL-13 induced pSTAT6 in BEAS
Assay type: cell-based
Settings: IL-13 induced pSTAT6, BEAS-2B cells, ELISA
Procedure: BEAS-2B human cell line was seeded (100.000 cells/well) and incubated for 48 h at 37° C., 5% CO2, 95% humidity. Compounds were added and incubated 30 min followed by IL-13 as trigger. After 30 min incubation, cells were lysed and pSTAT6 determined by Fastscan phospho-stat6 (Tyr641) sandwich ELISA kit (cell signaling). Inhibitors were tested at 11 consecutive […] dilutions starting from 10 μM (10 μM-40 pM) in duplicate. Calculation of IC50 data, curves and QC analysis were made using Excel tools and GraphPadPrism software. QC criteria parameters: Z′≥0.35, Hill Slope range 0.5 to 5, S:B>2.

`Cc1nn(-c2cc3c(cc2OC(F)F)NCCO3)c2cc(-c3cnn4cccnc34)ncc12` [Example 1, 6-(difluoromethoxy)-7-(3-methyl-6-(pyrazolo[1,5-a]pyrimidin-3-yl)-1H-pyrazolo[4,3-c]pyridin-1-yl)-3,4-dihydro-2H-benzo[b][1,4]oxazine] was tested. Which IC50 did it give?
The IC50 was 5.01 to 50.1 nM.

With `COc1cc2c(cc1-n1nc(C)c3cnc(-c4cnn5cccnc45)cc31)CN(S(C)(=O)=O)C2` [Example 2, 1-(6-methoxy-2-(methylsulfonyl)isoindolin-5-yl)-3-methyl-6-(pyrazolo[1,5-a]pyrimidin-3-yl)-1H-pyrazolo[4,3-c]pyridine] as the molecule, how does the IC50 read?
Its IC50 is 5.01 to 50.1 nM.

With `COc1cc2c(cc1-n1nc(C)c3cnc(-c4cnn5cccnc45)cc31)CCCC(=O)N2` [Example 3, 8-methoxy-7-(3-methyl-6-(pyrazolo[1,5-a]pyrimidin-3-yl)-1H-pyrazolo[4,3-c]pyridin-1-yl)-1,3,4,5-tetrahydro-2H-benzo[b]azepin-2-one] as the molecule, how does the IC50 read?
Its IC50 is 5.01 to 50.1 nM.

`COc1cc2c(cc1-n1nc(C)c3cnc(-c4cnn5cccnc45)cc31)CCC(=O)N2` [Example 4, 7-methoxy-6-(3-methyl-6-(pyrazolo[1,5-a]pyrimidin-3-yl)-1H-pyrazolo[4,3-c]pyridin-1-yl)-3,4-dihydroquinolin-2(1H)-one] was tested. Which IC50 did it give?
The IC50 was 5.01 to 50.1 nM.

How did the IC50 turn out when `COc1cc2c(cc1-n1nc(C)c3cnc(-c4cnn5cccnc45)cc31)C(=O)CCN2` [Example 5, 7-methoxy-6-(3-methyl-6-(pyrazolo[1,5-a]pyrimidin-3-yl)-1H-pyrazolo[4,3-c]pyridin-1-yl)-2,3-dihydroquinolin-4(1H)-one] was run?
The IC50 was 5.01 to 50.1 nM.

How did the IC50 turn out when `COc1cc2c(cc1-n1nc(C)c3cnc(-c4cnn5cccnc45)cc31)SCCN2` [Example 6, 6-methoxy-7-(3-methyl-6-(pyrazolo[1,5-a]pyrimidin-3-yl)-1H-pyrazolo[4,3-c]pyridin-1-yl)-3,4-dihydro-2H-benzo[b][1,4]thiazine] was run?
The IC50 was under 5.01 nM.

For `COc1cc2c(cc1-n1nc(C)c3cnc(-c4cnn5cccnc45)cc31)SCC(=O)N2` [Example 7, 6-methoxy-7-(3-methyl-6-(pyrazolo[1,5-a]pyrimidin-3-yl)-1H-pyrazolo[4,3-c]pyridin-1-yl)-2H-benzo[b][1,4]thiazin-3(4H)-one], which IC50 is on record?
The IC50 was 5.01 to 50.1 nM.

Which IC50 does the source give for `COc1cc2c(cc1-n1nc(C)c3cnc(-c4cnn5cccnc45)cc31)S(=O)(=O)CCN2` [Example 8, 6-methoxy-7-(3-methyl-6-(pyrazolo[1,5-a]pyrimidin-3-yl)-1H-pyrazolo[4,3-c]pyridin-1-yl)-3,4-dihydro-2H-benzo[b][1,4]thiazine 1,1-dioxide] here?
The IC50 was 5.01 to 50.1 nM.

With `COc1cc2c(cc1-n1nc(C)c3cnc(-c4cnn5cccnc45)cc31)OCCCN2` [Example 9, 7-methoxy-8-(3-methyl-6-(pyrazolo[1,5-a]pyrimidin-3-yl)-1H-pyrazolo[4,3-c]pyridin-1-yl)-2,3,4,5-tetrahydrobenzo[b][1,4]oxazepine] as the molecule, how does the IC50 read?
Its IC50 is 5.01 to 50.1 nM.

Which IC50 does the source give for `COc1cc2c(cc1-n1nc(C)c3cnc(-c4cnn5cccnc45)cc31)CC(=O)N2` [Example 10, 6-methoxy-5-(3-methyl-6-(pyrazolo[1,5-a]pyrimidin-3-yl)-1H-pyrazolo[4,3-c]pyridin-1-yl)indolin-2-one] here?
The IC50 was 5.01 to 50.1 nM.

`COc1cc2c(cc1-n1nc(C)c3cnc(-c4cnn5cccnc45)cc31)OC(F)(F)C(=O)N2` [Example 11, 2,2-difluoro-6-methoxy-7-(3-methyl-6-(pyrazolo[1,5-a]pyrimidin-3-yl)-1H-pyrazolo[4,3-c]pyridin-1-yl)-2H-benzo[b][1,4]oxazin-3(4H)-one] was tested. Which IC50 did it give?
The IC50 was 5.01 to 50.1 nM.

`COc1cc2c(cc1-n1nc(C)c3cnc(-c4cnn5cccnc45)cc31)CN(C)C(=O)N2` [Example 12, 7-methoxy-3-methyl-6-(3-methyl-6-(pyrazolo[1,5-a]pyrimidin-3-yl)-1H-pyrazolo[4,3-c]pyridin-1-yl)-3,4-dihydroquinazolin-2(1H)-one] was tested. Which IC50 did it give?
Its IC50 is 50.1 to 501 nM.

With `COc1cc2c(cc1-n1nc(C(=O)NC3CN(CC4CCOCC4)C3)c3cnc(-c4cnn5cccnc45)cc31)OCCN2` [Example 13] as the molecule, how does the IC50 read?
Its IC50 is 5.01 to 50.1 nM.

How did the IC50 turn out when `COc1cc2c(cc1-n1nc(C(=O)NCCCN3CCC(F)(F)CC3)c3cnc(-c4cnn5cccnc45)cc31)OCCN2` [Example 14, N-(3-(4,4-difluoropiperidin-1-yl)propyl)-1-(6-methoxy-3,4-dihydro-2H-benzo[b][1,4]oxazin-7-yl)-6-(pyrazolo[1,5-a]pyrimidin-3-yl)-1H-pyrazolo[4,3-c]pyridine-3-carboxamide] was run?
The IC50 was 5.01 to 50.1 nM.

With `COc1cc2c(cc1-n1nc(C(=O)NCCN3CCC4(CCC(=O)O4)CC3)c3cnc(-c4cnn5cccnc45)cc31)OCCN2` [Example 15, 1-(6-methoxy-3,4-dihydro-2H-benzo[b][1,4]oxazin-7-yl)-N-(2-(2-oxo-1-oxa-8-azaspiro[4.5]decan-8-yl)ethyl)-6-(pyrazolo[1,5-a]pyrimidin-3-yl)-1H-pyrazolo[4,3-c]pyridine-3-carboxamide] as the molecule, how does the IC50 read?
The IC50 was under 5.01 nM.

For `COc1cc2c(cc1-n1nc(C(=O)NCCCN(C)C)c3cnc(-c4cnn5cccnc45)cc31)SCCN2` [Example 16, N-(3-(dimethylamino)propyl)-1-(6-methoxy-3,4-dihydro-2H-benzo[b][1,4]thiazin-7-yl)-6-(pyrazolo[1,5-a]pyrimidin-3-yl)-1H-pyrazolo[4,3-c]pyridine-3-carboxamide], which IC50 is on record?
Its IC50 is under 5.01 nM.

`COc1cc2c(cc1-n1nc(C(=O)NC3CN(C)C3)c3cnc(-c4cnn5cccnc45)cc31)SCCN2` [Example 17, 1-(6-methoxy-3,4-dihydro-2H-benzo[b][1,4]thiazin-7-yl)-N-(1-methylazetidin-3-yl)-6-(pyrazolo[1,5-a]pyrimidin-3-yl)-1H-pyrazolo[4,3-c]pyridine-3-carboxamide] was tested. Which IC50 did it give?
The IC50 was 5.01 to 50.1 nM.

`COc1cc2c(cc1-n1nc(C(=O)NC[C@@H]3CN(C)CCO3)c3cnc(-c4cnn5cccnc45)cc31)SCCN2` [Example 18, (R)-1-(6-methoxy-3,4-dihydro-2H-benzo[b][1,4]thiazin-7-yl)-N-((4-methylmorpholin-2-yl)methyl)-6-(pyrazolo[1,5-a]pyrimidin-3-yl)-1H-pyrazolo[4,3-c]pyridine-3-carboxamide] was tested. Which IC50 did it give?
Its IC50 is 5.01 to 50.1 nM.

`COc1cc2c(cc1-n1nc(NC(=O)OCCCN3CCOC(=O)C3)c3cnc(-c4cnn5cccnc45)cc31)SCCN2` [Example 19, 3-(2-oxomorpholino)propyl (1-(6-methoxy-3,4-dihydro-2H-benzo[b][1,4]thiazin-7-yl)-6-(pyrazolo[1,5-a]pyrimidin-3-yl)-1H-pyrazolo[4,3-c]pyridin-3-yl)carbamate] was tested. Which IC50 did it give?
The IC50 was 5.01 to 50.1 nM.

With `COc1cc2c(cc1-n1nc(NC(=O)OCCN(C)C3CCOC3=O)c3cnc(-c4cnn5cccnc45)cc31)SCCN2` (stereo not drawn) [Example 20, 2-(methyl(2-oxotetrahydrofuran-3-yl)amino)ethyl (1-(6-methoxy-3,4-dihydro-2H-benzo[b][1,4]thiazin-7-yl)-6-(pyrazolo[1,5-a]pyrimidin-3-yl)-1H-pyrazolo[4,3-c]pyridin-3-yl)carbamate] as the molecule, how does the IC50 read?
The IC50 was 5.01 to 50.1 nM.

With `COc1cc2c(cc1-n1nc(C(=O)NC[C@@H]3CN(C)CCO3)c3cnc(-c4cnn5cccnc45)cc31)SCC(=O)N2` [Example 21, (R)-1-(6-methoxy-3-oxo-3,4-dihydro-2H-benzo[b][1,4]thiazin-7-yl)-N-((4-methylmorpholin-2-yl)methyl)-6-(pyrazolo[1,5-a]pyrimidin-3-yl)-1H-pyrazolo[4,3-c]pyridine-3-carboxamide] as the molecule, how does the IC50 read?
Its IC50 is 5.01 to 50.1 nM.
